According to PubChem BioAssay AID1552 (Sanford-Burnham Center for Chemical Genomics, 2009):
The source made the active and inactive calls. The rule behind the calls is not given here.

Target: Ubiquitin-conjugating enzyme E2 N (Homo sapiens) (UniProt P61088)
Assay: NMR detection of UBE2N ligand binding – biophysical, purified protein (AID 1552)
Settings: NMR binding to purified UBE2N

Sequence of Ubiquitin-conjugating enzyme E2 N (Homo sapiens) (P61088 whole entry, looked up): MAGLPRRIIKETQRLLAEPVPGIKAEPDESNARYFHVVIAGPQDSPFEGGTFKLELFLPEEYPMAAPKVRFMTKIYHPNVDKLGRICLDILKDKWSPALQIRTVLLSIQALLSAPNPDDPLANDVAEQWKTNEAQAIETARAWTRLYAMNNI

| Structure (SMILES) | Kd |
| --- | --- |
| COc1ccccc1-c1n[nH]c(=O)o1 | > 4 mM (inactive) |
| CC(C)n1nnc2cc(C(=O)O)ccc21 | > 4 mM (inactive) |
| Cc1nc(-c2ccccc2)sc1CO | > 4 mM (inactive) |
| COC(=O)Cc1cc(=O)n(-c2ccccc2)[nH]1 | > 4 mM (inactive) |
| Cn1c(NCc2ccco2)nc2ccccc21 | > 4 mM (inactive) |
| CCc1nnsc1C(=O)Nc1nccs1 | > 4 mM (inactive) |
| Cc1ccc(-c2nn(C)c(=O)c3ccccc23)cc1CO | > 4 mM (inactive) |
| Cc1[nH]c(=O)[nH]c(=O)c1N1CCOCC1 | > 4 mM (inactive) |
| O=C(NC1CCS(=O)(=O)C1)c1ccccc1 (stereo not given) | > 4 mM (inactive) |
| CC(=O)Nc1cc(S(=O)(=O)N(C)C)ccc1Cl | > 4 mM (inactive) |
| Nc1nc(SCc2ccc3c(c2)OCO3)n[nH]1 | > 4 mM (inactive) |
| Cc1nnsc1-c1onc(C)c1C(=O)O | > 4 mM (inactive) |
| O=c1nc(C(F)(F)F)nc2ccccn12 | > 4 mM (inactive) |
| CCNS(=O)(=O)c1cc(Br)ccc1OC | > 4 mM (inactive) |
| C=CCc1ccc(O)c(OC)c1 | > 4 mM (inactive) |
| COC(=O)c1cccnc1Oc1ccccc1 | > 4 mM (inactive) |
| CCn1c2ccccc2c2nn(C)c(=N)nc21 | > 4 mM (inactive) |
| O=C1c2ccccc2C(=O)c2c(O)c(O)cc(O)c21 | > 4 mM (inactive) |
| CNC(=O)c1cc(C)c(-c2ccccc2)s1 | > 4 mM (inactive) |
| O=C1CN(c2ccccc2)CC(=O)N1 | > 4 mM (inactive) |
| Cc1nc2sccn2c1C(=O)O | > 4 mM (inactive) |
| CC(=O)CC1CCCCN1 (stereo not given) | > 4 mM (inactive) |
| NC1=NC(=O)C(Cc2ccccc2)S1 (stereo not given) | > 4 mM (inactive) |
| O=C1C[C@@H](c2ccc(O)cc2)Oc2cc(O)cc(O)c21 | > 4 mM (inactive) |
| CC(=O)N1CCn2c3c(c(=O)c4cc(C)ccc42)CCC31 (stereo not given) | > 4 mM (inactive) |

| Structure (SMILES) | Kd |
| --- | --- |
| Nc1nnc(SCc2ccccc2Cl)s1 | > 4 mM (inactive) |
| O=c1[nH]c2c(c(=O)n1C1CCCCC1)CCC2 | > 4 mM (inactive) |
| Nc1nc(SCc2ccccc2)ns1 | > 4 mM (inactive) |
| COc1cccc(-c2cc(=O)c3cc(OC)ccc3o2)c1 | > 4 mM (inactive) |
| O=c1oc2ccccc2cc1O | > 4 mM (inactive) |
| Cc1cc(NC(=O)c2c(F)c(F)c(F)c(F)c2F)no1 | > 4 mM (inactive) |
| CC(C)CCn1cnc2c1c(=O)n(C)c(=O)n2C | > 4 mM (inactive) |
| CC1(C)NC(=O)N(CN2CCOCC2)C1=O | > 4 mM (inactive) |
| O=C(O)c1scc2c1CCCC2 | > 4 mM (inactive) |
| COC(=O)c1cnccc1C(F)(F)F | > 4 mM (inactive) |
| Cc1c(C)c2c(c(C)c1O)CCC(C)(CCCC(C)CCCC(C)CCCC(C)C)O2 (stereo not given) | > 4 mM (inactive) |
| O=C(C1CCCCC1)N1CCN(c2ccccc2F)CC1 | > 4 mM (inactive) |
| Cc1onc(-c2c(F)cccc2Cl)c1C(N)=O | > 4 mM (inactive) |
| O=c1c(O)c(-c2ccccc2)oc2cc(O)ccc12 | > 4 mM (inactive) |
| Cc1nnc(SCC(=O)N2CCc3ccccc32)s1 | > 4 mM (inactive) |
| CNC(=S)N1CCN=C1Nc1nc(C)cc(C)n1 | > 4 mM (inactive) |
| OCC1Cc2ccccc2N1 (stereo not given) | > 4 mM (inactive) |
| O=C1CS/C(=N/N=C2CCCC2)N1 | > 4 mM (inactive) |
| COC(=O)Nc1nc2c(s1)CCCC2 | > 4 mM (inactive) |
| O=C(NS(=O)(=O)c1ccccc1)c1ccccc1F | > 4 mM (inactive) |
| CC(=O)Nc1cccc(N2C(=O)CCC2=O)c1 | > 4 mM (inactive) |
| COC(=O)c1sc(N)nc1C | > 4 mM (inactive) |
| CC(=O)CNc1cc(CNC(C)=O)c(C)cc1C | > 4 mM (inactive) |
| CN1CCC2(CC1)CC1CC3C=CC1(CN2)O3 (stereo not given) | > 4 mM (inactive) |
| Cc1ccc(NC(=O)CC2NCCNC2=O)c(C)c1 (stereo not given) | > 4 mM (inactive) |

| Structure (SMILES) | Kd |
| --- | --- |
| OC/C=C/c1ccc(O)c(O)c1 | > 4 mM (inactive) |
| N[C@@H](Cc1cc(I)c(Oc2cc(I)c(O)c(I)c2)c(I)c1)C(=O)O | > 4 mM (inactive) |
| CN1CCN(C(=O)C2CCCNC2)CC1 (stereo not given) | > 4 mM (inactive) |
| COc1ccc(NC(=O)C2CC(=O)N=C(N)S2)cc1 (stereo not given) | > 4 mM (inactive) |
| S=c1nc2c(n[nH]1)[nH]c1ccccc12 | > 4 mM (inactive) |
| O=c1[nH]c2sc3c(c2c2nncn12)CCCC3 | > 4 mM (inactive) |
| Cc1c(C)n2c(SCC(N)=O)nnc2[nH]c1=O | > 4 mM (inactive) |
| NC12CC3CC(C1)CC(CC(=O)O)(C3)C2 | > 4 mM (inactive) |
| Cn1c(CN2CC(c3ccccc3)CC2=O)n[nH]c1=S (stereo not given) | > 4 mM (inactive) |
| O=c1[nH]c(CN2CCN(CCO)CC2)nc2ccccc12 | > 4 mM (inactive) |
| Nc1ncnc2c1ncn2CCOc1ccccc1 | > 4 mM (inactive) |
| Cc1ccc2cccc(OC(=O)N3CCCC3)c2n1 | > 4 mM (inactive) |
| COc1cc2nc(-c3cccs3)oc(=O)c2cc1OC | > 4 mM (inactive) |
| CNC[C@@H](O)c1ccc(O)c(O)c1 | > 4 mM (inactive) |
| CN(C(N)=O)C1(C)CCS(=O)(=O)C1 (stereo not given) | > 4 mM (inactive) |
| CC(=O)Nc1sc(C)c(C)c1C(N)=O | > 4 mM (inactive) |
| CC(=O)c1ccc2c(c1)OCCO2 | > 4 mM (inactive) |
| C[C@H]1C(=O)CCC2[C@]3(C)CC[C@@]4(C)C5CC(C)(C)CC[C@]5(C)CC[C@]4(C)C3CC[C@@]21C (stereo not given in full) | > 4 mM (inactive) |
| CN1C(=O)/C(=C/c2ccccc2O)NC1=S | > 4 mM (inactive) |
| CC(C)c1ccc2c(c1O)CC[C@H]1C3=C(CC[C@]21C)C(=O)OC3 | > 4 mM (inactive) |
| OCC(O)C(O)C(O)CO (stereo not given) | > 4 mM (inactive) |
| Nc1cc(=O)[nH]c(=S)n1CCc1ccccc1 | > 4 mM (inactive) |
| NC(=O)Cn1cnc2ccccc21 | > 4 mM (inactive) |
| OCc1ccc2nsnc2c1 | > 4 mM (inactive) |
| N/N=C/c1cccnc1 | > 4 mM (inactive) |

| Structure (SMILES) | Kd |
| --- | --- |
| CCn1cnc2scc(-c3ccccc3)c2c1=O | > 4 mM (inactive) |
| COC(=O)C[C@H]1C2(C)CC34OC5(C)O[C@@]6([C@H](OC)C(OC(=O)C(C)C)[C@]7(C)C(/C(=C(/OC)C(C)C)C(=O)O[C@H]7c7ccoc7)[C@@]6(O5)[C@H](OC)[C@@]3(OC)C2OC(C)=O)[C@]14C (stereo not given in full) | > 4 mM (inactive) |
| NC(=O)CCS(=O)(=O)CCN1CCOCC1 | > 4 mM (inactive) |
| CCSc1nnc(-c2ccccc2N)c(=O)[nH]1 | > 4 mM (inactive) |
| O=C(c1cccnc1Cl)N1CCOCC1 | > 4 mM (inactive) |
| Cc1occc1C(=O)Nc1nccs1 | > 4 mM (inactive) |
| COc1cc2[nH]c(=S)n(C)c(=O)c2cc1OC | > 4 mM (inactive) |
| OCCCc1nc2ccccc2[nH]1 | > 4 mM (inactive) |
| CN(C)C(=O)N1CCN(C(=O)c2ccco2)CC1 | > 4 mM (inactive) |
| NC1=NC(=O)/C(=C\c2ccccc2)S1 | > 4 mM (inactive) |
| N#Cc1ccccc1CSc1ccccn1 | > 4 mM (inactive) |
| C/C(N)=C/C(=O)N1CCCCC1 | > 4 mM (inactive) |
| COc1nc(N2CCOCC2)nc(N)c1[N+](=O)[O-] | > 4 mM (inactive) |
| CCOC(=O)C1C(C=C(C)C)C1(C)C (stereo not given) | > 4 mM (inactive) |
| COc1ccc2c(c1OC)OC[C@@H](c1ccc(OC)c(OC)c1OC)C2 | > 4 mM (inactive) |
| Cc1[nH]c2ccccc2c1CN(C)C | > 4 mM (inactive) |
| O=C(O)Cn1nnn(-c2ccccc2)c1=S | > 4 mM (inactive) |
| COc1ccc2c(c1)[n+](=O)c(C(C)=O)c(C)n2[O-] | > 4 mM (inactive) |
| COc1c(C(=O)N2CCCC2)ccc2ccccc12 | > 4 mM (inactive) |
| Cc1scc(C(=O)Nn2cnnc2)c1-c1ccccc1 | > 4 mM (inactive) |
| CC(=O)Nc1ccc(Oc2nc(C)cc(C)n2)cc1 | > 4 mM (inactive) |
| Cn1c(=O)n(C)c2nc([N+](=O)[O-])c(Cl)cc21 | > 4 mM (inactive) |
| O=C(NC1=NCCS1)c1ccc(Cl)s1 | > 4 mM (inactive) |
| COc1ccc(S(N)(=O)=O)cc1 | > 4 mM (inactive) |
| Cc1cc2cc3c(C)cc(=O)oc3c(C)c2o1 | > 4 mM (inactive) |

| Structure (SMILES) | Kd |
| --- | --- |
| Cc1nc(-c2ccccc2)sc1CN | > 4 mM (inactive) |
| O=C1CN(C(=O)CN2CCOCC2)c2ccccc2N1 | > 4 mM (inactive) |
| Cn1nnc2cc(C(=O)O)ccc21 | > 4 mM (inactive) |
| Nc1cc(F)nc(F)n1 | > 4 mM (inactive) |
| CC(C)(O)[C@@H]1Cc2cc3ccc(=O)oc3cc2O1 | > 4 mM (inactive) |
| CC(=O)c1csc(-c2cc(C)on2)n1 | > 4 mM (inactive) |
| CCC1C(=O)OCC1Cc1cncn1C (stereo not given) | > 4 mM (inactive) |
| O=C(CSc1ncccn1)Nc1nccs1 | > 4 mM (inactive) |
| O=C1CSC(=O)N1CNc1ccccc1 | > 4 mM (inactive) |
| CC(=O)c1c(C)nc(-c2cccs2)n1O | > 4 mM (inactive) |
| CN1CCN(CC(=O)NC2CCCCC2)CC1 | > 4 mM (inactive) |
| O=C(CSc1cccc2cccnc12)N1CCCC1 | > 4 mM (inactive) |
| CCSc1nc2ccccc2[nH]1 | > 4 mM (inactive) |
| O=C(O[C@@H]1Cc2c(O)cc(O)cc2O[C@@H]1c1ccc(O)c(O)c1)c1cc(O)c(O)c(O)c1 | > 4 mM (inactive) |
| O=S1(=O)NC(=NCc2ccccc2)c2ccccc21 | > 4 mM (inactive) |
| CN(C)c1n[nH]c(=O)[nH]c1=O | > 4 mM (inactive) |
| Cc1onc(-c2ccccc2)c1CN | > 4 mM (inactive) |
| NC(=NCCC[C@H](N)C(=O)O)NC(CCC(=O)O)C(=O)O (stereo not given in full) | > 4 mM (inactive) |
| CC1=NN(C(N)=S)C(C)(C)C1 | > 4 mM (inactive) |
| O=C(c1ccco1)N1CCNCC1 | > 4 mM (inactive) |
| CSc1nc(C)cc(-n2ccc(=O)[nH]c2=O)n1 | > 4 mM (inactive) |
| O=C(O)C1CSC(c2cc3ccccc3nc2Cl)N1 (stereo not given) | > 4 mM (inactive) |
| CC(C)=NNC(=O)c1ccccc1 | > 4 mM (inactive) |
| OCc1csc(-c2cccs2)n1 | > 4 mM (inactive) |
| COc1ccc2c(c1)[nH]c1c(C)nccc12 | > 4 mM (inactive) |
